The results in this text go back to patent US20060100168A1, “Method of treating cancer using adenosine and its analogs” (The Trustee of Boston University, priority 2002, published 2006).

Structures are written as SMILES. “Also recorded” adds a separate entry of the source.

Broadly, the inhibition is the change of the read-out against control, counted positive when it falls.

In assay [1] the test system is MCF-7 cells. The assay can be described thus: Apoptosis by propidium iodide staining and flow cytometry (sub-diploid events). The settings on record: 100 μM; for Apoptosis: 2 days of treatment, except adenosine (500 μM) and inosine (1 mM), number of apoptotic cells compared to vehicle control (set to 1), average ± SD; for Apoptosis, in words: two days. The class given is cell-based, human. The method, then: (§1) Flow Cytometry and Apoptosis Analysis: Cells were detached from tissue culture plates by trypsin treatment. Cells were collected by centrifugation at 1200 g for 5 minutes and washed once with PBS. Staining of cells with propidium iodide and analysis on a flow cytometer (FACScan, Becton Dickinson, Research Triangle Park, N.C.) was performed as described before (42). Data were analyzed with CellQuest software (Becton Dickinson, Research Triangle Park, N.C.). The percentage of cells appearing with a ploidy level smaller than a diploid content was calculated as an estimate of cells undergoing apoptosis.
(In general: Flow cytometry measures light scatter and fluorescence of single cells or particles in a stream.)

In assay [2] the test system is MCF-7 cells. The assay can be described thus: Anchorage-independent growth (soft agar) assay. The class given is cell-based, human. The settings on record: for Effect on anchorage-independent growth (colony formation), in words: different concentrations. The method, then:
Anchorage-independent growth (soft agar) assay: Soft agar assay was performed as described (40) with the following modifications. Ligands were added into the bottom and top agar before plating into 6-well plates. Cells were treated with trypsin (Invitrogen, Carlsbad, Calif.) for 5 minutes in a 37° C. incubator and pipetted several times so that most cells were in single cell forms. Cells were counted with a hemacytometer (Hausser Scientific/VWR, So. Plainfield, N.J.), and 10,000 cells were mixed with top agar and plated into each well. After the top agar had solidified, two ml of medium containing the same treatment was added on top of the agar. This covering medium was changed every two days during culture. After two weeks of culture, each well was counted for the number of colonies formed on an Olympus IX70 microscope under 40× optical amplification. A cell colony was defined as any cluster of cells that contain more than 3 cells. The average of counts from 3 random optical fields for each well was taken as the colony number and analyzed. Each treatment was performed in triplicates. The averages and standard deviations shown in the figures were calculated based on triplicate experiments.

The test system of assay [3] is MCF-7 cells. The assay can be described thus: Anchorage-dependent growth assay (viable cell count, Trypan Blue). The class given is cell-based, human. The settings on record: for Cell Growth / Effect on MCF-7 cell growth, in words: MCF-7; for Cell Growth: 2 days of treatment, compounds at 100 μM, except adenosine (500 μM) and inosine (1 mM), normalized to vehicle control (set to 1), negative = decrease vs count before treatment, average ± SD, three experiments; for Effect on MCF-7 cell growth, in words: summary of Table 1 and discussion. As for the experimental part: Anchorage-dependent growth assay: Cells were plated into 6-well plates and grown overnight before treatments. The seeding concentration of MCF-7 cells was 2×10^5/well, which was determined during preliminary experiments as not allowing the cells to reach confluency within 3 days. Cells were treated either with vehicle or ligands, as indicated. Cells were detached by incubation with trypsin (Invitrogen, Carlsbad, Calif.) and counted with a hemacytometer before or after treatment.

The test system of assay [4] is MCF-7 cells. The assay can be described thus: Cell cycle analysis by flow cytometry. The class given is cell-based, human. The settings on record: 100 μM, except adenosine (500 μM) and inosine (1 mM); for Percentage change of diploid (G0 or G1 phase) population compared to vehicle-treated cells: first number in parentheses; for Percentage change of S phase population compared to vehicle-treated cells: second number in parentheses; for Percentage change of tetraploid (G2 or M phase) population compared to vehicle-treated cells: third number in parentheses. The method, then: as §1

The test system of assay [5] is estrogen receptor α (ERα). The assay can be described thus: ERα protein level by Western blot in MCF-7 cells. The class given is cell-based, human. The settings on record: for ERα Level: 12 hours, 100 μM, except adenosine (500 μM), Western blot quantitated, vehicle control set to 1, average of two experiments; for ERα protein level, in words: Western blot. As for the experimental part: Western Blot Analysis: Cells were washed three times in cold 1×PBS, and collected by scraping on ice. Western blot analysis was performed as we described before with the chemiluminescence method (41). […] Cyclin A, cyclin B1 and p27 antibodies were used at 1:500 dilutions. Cyclin E antibody was used at 1:1000 dilutions.

Assay [6] relates to primary rat bone marrow cells. The assay can be described thus: Thymidine incorporation assay. The class given is cell-based. The settings on record: 24 hours, IB-MECA at 100 μM. The method, then:
(§2) Thymidine Incorporation Assay. Thymidine incorporation assays were performed as described (Zhang, Y., Wang, Z., and Ravid, K. The cell cycle in polyploid megakaryocytes is associated with reduced activity of cyclin B1-dependent cdc2 kinase. J Biol Chem, 271: 4266-4272, 1996) with modifications. Rat bone marrow cells were cultured in 25 cm^2 flasks at a concentration of 20×10^6 cells per 2 ml. After drug treatment for 24 hours, cells were incubated with ^3H-thymidine at a final concentration of 3 μCi/ml for 8 hours. For MCF-7 cells, cells were cultured in 6-well plates and incubated with ^3H-thymidine for 2 hours after drug treatment. Cells were divided into two portions, sixty percent of which were processed as described (Id.) to obtain tritium counts. The rest of the cells were lysed with Western blotting lysis buffer and protein concentrations were determined by Bio-Rad protein assay reagent (Bio-Rad, Hercules, Calif.). Tritium counts were normalized with corresponding protein concentrations to account for cell number variations.

Assay [7] has as its system MCF-7 cells. The assay can be described thus: Thymidine incorporation assay. The class given is cell-based, human. To be noted: treated 24 hours before thymidine. The method, then:
as §2

As for `Nc1ncnc2c1ncn2[C@@H]1O[C@H](CO)[C@@H](O)[C@H]1O` [Adenosine], the Apoptosis with MCF-7 cells [1] came to 1.06 ± 0.17. Moreover, the inhibition at 1000 µM with MCF-7 cells [2] (Homo sapiens, MCF7, 336 h, MCF-7 soft agar, 1 mM, two weeks, read-out: Inhibition of colony-forming ability) was approximately 50%. The “Effect on anchorage-independent growth (colony formation), in words” value (“Effect on anchorage-independent growth” below) in the assay with MCF-7 cells [2] (MCF-7 soft agar, two weeks) is “dose-dependent inhibition of colony formation”. In the assay with MCF-7 cells [3], the “Cell Growth” value came to 0.49 ± 0.04. For the same compound, in the assay on MCF-7 cells [4], the “Percentage change of diploid (G0 or G1 phase) population compared to vehicle-treated cells” value (“Percentage change of diploid” below) is reported as −25%, the “Percentage change of S phase population compared to vehicle-treated cells” value (“Percentage change of S phase population” below) is recorded as −56% and the “Percentage change of tetraploid (G2 or M phase) population compared to vehicle-treated cells” value (shortened to “Percentage change of tetraploid”) is listed as 97%. Besides, the “ERα Level” value in assay [5] is given as 1.07.
Consider `Nc1nc(Cl)nc2c1ncn2[C@@H]1O[C@H](CO)[C@@H](O)[C@H]1O` [CADO, 2-chloro-adenosine], for which, in the assay with MCF-7 cells [1], the “Apoptosis, in words” value is given as “without inducing apoptosis” and the Apoptosis stood at 0.84 ± 0.6. Further, in the assay on MCF-7 cells [3], the “Cell Growth” value is reported as −0.02 ± 0.02 and the “Effect on MCF-7 cell growth, in words” value is recorded as “significantly inhibited cell growth”. In addition, in the assay with MCF-7 cells [4], the “Percentage change of diploid” value was −11%, the “Percentage change of S phase population” value was determined as 11% and the “Percentage change of tetraploid” value is given as 20%. Besides, in assay [5], the “ERα Level” value was found to be 0.41; the “ERα protein level, in words” value is “significantly inhibited cell growth and ERα levels”.
Compound `OC[C@H]1O[C@@H](n2cnc3c(NC4CCCC4)nc(Cl)nc32)[C@H](O)[C@@H]1O` [CCPA, 2-Chloro-N^6-cyclopentyladenosine] yielded an Apoptosis in the assay on MCF-7 cells [1] of 0.49 ± 0.12. For the same compound, in the assay on MCF-7 cells [2] (MCF-7 soft agar, two weeks), the “Effect on anchorage-independent growth” value is recorded as “did not inhibit”. Also, in the assay on MCF-7 cells [3], the “Cell Growth” value was determined as 0.79 ± 0.16 and the “Effect on MCF-7 cell growth, in words” value is “no significant effect on cell growth; also recorded: did not have a significant effect”. Further, in the assay with MCF-7 cells [4], the “Percentage change of diploid” value is 3%, the “Percentage change of S phase population” value is −18% and the “Percentage change of tetraploid” value is given as 11%. In assay [5], the “ERα Level” value was 1.16.
Turning to `CCNC(=O)[C@H]1O[C@@H](n2cnc3c(N)nc(NCCc4ccc(CCC(=O)O)cc4)nc32)[C@H](O)[C@@H]1O` [CGS21680, 2-p-(2-Carboxyethyl)phenethylamino-5′-N-ethylcarboxamidoadenosine], the “Effect on anchorage-independent growth” value in the assay with MCF-7 cells [2] (MCF-7 soft agar, two weeks) is “did not inhibit”. In the assay on MCF-7 cells [3], the “Effect on MCF-7 cell growth, in words” value is on record as “did not have a significant effect”.
For the compound `Nc1nc(Cl)nc2c1ncn2[C@H]1C[C@H](O)[C@@H](CO)O1` [CdA, 2-chloro-2′-deoxyadenosine], in the assay on MCF-7 cells [1], the “Apoptosis, in words” value is “induced cellular apoptosis” and the Apoptosis was 1.80 ± 0.17. Also, the “Cell Growth” value in the assay with MCF-7 cells [3] was 0.13 ± 0.01. In addition, in the assay with MCF-7 cells [3] (listed as 2-chloror-deoxyadenosine), the “Effect on MCF-7 cell growth, in words” value was “significantly inhibited; also recorded: as effective at 1 μM (not shown) as at 100 μM”. In assay [6], the “Thymidine incorporation reduced to” value stood at 32%. In addition, in the assay with MCF-7 cells [4], the “Percentage change of diploid” value is given as −69%, the “Percentage change of S phase population” value is on record as 165% and the “Percentage change of tetraploid” value was 20%. Moreover, the “Thymidine incorporation decreased to” value in the assay on MCF-7 cells [7] was determined as 43%.
As to `Nc1ncnc2c1ncn2[C@@H]1O[C@H](CO)C[C@H]1O` [Cordycepin, 3′-deoxyadenosine], in the assay with MCF-7 cells [1], the “Apoptosis, in words” value is recorded as “without inducing apoptosis” and the Apoptosis turned out to be 0.43 ± 0.07. Further, in the assay on MCF-7 cells [3], the “Cell Growth” value is 0.24 ± 6 and the “Effect on MCF-7 cell growth, in words” value is “significantly inhibited cell growth”. In the assay on MCF-7 cells [4], the “Percentage change of diploid” value is reported as −26%, the “Percentage change of S phase population” value amounted to 10% and the “Percentage change of tetraploid” value was 62%. Further, in assay [5], the “ERα Level” value is given as 0.58; the “ERα protein level, in words” value was “significantly inhibited cell growth and ERα levels”.
Turning to `OC[C@H]1O[C@@H](n2cnc3c(O)ncnc32)[C@H](O)[C@@H]1O` [Inosine], in the assay with MCF-7 cells [1], the Apoptosis was found to be 1.02 ± 0.14. Further, the “Effect on anchorage-independent growth” value in the assay with MCF-7 cells [2] (MCF-7 soft agar, two weeks) is recorded as “No effect”. In the assay on MCF-7 cells [3], the “Cell Growth” value is recorded as 0.90 ± 0.12 and the “Effect on MCF-7 cell growth, in words” value is recorded as “no significant effect on cell growth”. Also, in the assay with MCF-7 cells [4], the “Percentage change of diploid” value was −24%, the “Percentage change of S phase population” value amounted to 43% and the “Percentage change of tetraploid” value came to 8%.
Turning to `CCOC(=O)C1=C(C)NC(c2ccccc2)=C(C(=O)OCc2ccccc2)C1C#Cc1ccccc1` (centres unmarked) [MRS1191], the “Effect of A3AR antagonist on IB-MECA inhibitory effect on growth” value in the assay on MCF-7 cells [2] (MCF-7, antagonist up to 1 μM, not shown) was “did not abolish”.
The compound `CCNC(=O)[C@H]1O[C@@H](n2cnc3c(N)ncnc32)[C@H](O)[C@@H]1O` [NECA, 5′-(N-Ethylcarboxamido)adenosine] showed an Apoptosis with MCF-7 cells [1] of 0.99 ± 0.05. Further, in the assay on MCF-7 cells [2] (MCF-7 soft agar, two weeks), the “Effect on anchorage-independent growth” value is recorded as “did not inhibit”. Moreover, in the assay with MCF-7 cells [3], the “Cell Growth” value worked out at 0.90 ± 0.16 and the “Effect on MCF-7 cell growth, in words” value is listed as “no significant effect on cell growth; also recorded: did not have a significant effect”. For the same compound, in the assay on MCF-7 cells [4], the “Percentage change of diploid” value is 0%, the “Percentage change of S phase population” value is listed as 3% and the “Percentage change of tetraploid” value was −3%. Moreover, the “Cell Cycle Arrest (position of arrest)” value with MCF-7 cells [4] (flow cytometry) is given as “Not Detectable”. Besides, in assay [5], the “ERα Level” value is listed as 0.92 and the “ERα protein level, in words” value is recorded as “no significant change”.
Take `OCCN(CCO)c1nc(N2CCCCC2)c2nc(N(CCO)CCO)nc(N3CCCCC3)c2n1` [dipyridamole]: the “Effect of nucleoside transporter inhibitor on growth inhibitory effect of IB-MECA” value in the assay on MCF-7 cells [3] (10 μM) is on record as “did not prevent the growth inhibitory effect of IB-MECA”. Moreover, the “Effect on cell growth by itself” value in the assay on MCF-7 cells [3] (at higher concentrations than 10 μM) is listed as “inhibitory effect on cell growth”.
